# Experimental data reported in paper PMC10961359, “Targeting hexokinase 2 for oral cancer therapy: structure-based design and validation of lead compounds” (Frontiers in Pharmacology, 2024).
# Columns and labels:
# Assay type in all cases: cell-based
# FaDu cells [1] = test: Mitochondria membrane potential by TMRE uptake, FaDu; settings: 30 μM, 4 h
# Method: (§1) FaDu and Cal27 cells were treated with test compounds (0.2 million cells per treatment) and were incubated for 1 h with 100 μM of 2-NBDG (Invitrogen, N13195), in glucose free medium, washed with ice-cold PBS, and re-suspended in 500 μL of PBS and maintained on ice to perform flow cytometric analyses within 30 min. The mean fluorescent intensity (MFI) readout reflects the amount of fluorescent glucose analog taken up by the cells, providing insight into their glucose uptake capacity. The percent (%) cell population positive for glucose uptake (shown with a right shift of the histogram peaks) were also plotted for both the cell lines. For MMP analysis, cells were incubated with 200 nM of TMRE (Invitrogen, T669) for 30 min. For each measurement, data was collected for 10,000 events using a BD FACS Aria III (Becton Dickinson, San Jose, CA) instrument.
# Mitochondria utilize the oxidizable substrates to produce a membrane potential as the proton gradient ([Sivandzade et al., 2019]). […] To determine the change in MMP post-treatment with HK2 inhibitors, the cells were treated with 200 nM of TMRE (tetramethyl rhodamine ethyl ester, a cell-permeant cationic dye readily sequestered by active mitochondria) and flow cytometric analyses of TMRE uptake was carried out. […]
# FaDu cells [2] = test: Annexin V FITC / propidium iodide apoptosis assay, FaDu; settings: 10 and 30 μM, 72 h
# Method: FaDu and Cal27 cells were treated with the test compounds (0.5 million cells per treatment) for 72 h, and harvested for cell cycle analysis (Cat# BD340242) and apoptosis analysis (Cat# BD556547) by flow cytometry according to manufacturer’s instructions.
# To determine the effect of HK2 inhibition in the progression of the cell cycle, flow cytometric analysis of compound-treated FaDu and Cal27 cells was carried out 72 h post-treatment. Cell cycle analysis is carried out to quantify the DNA content and estimate the percentages of the cell population in different cell cycle phases via propidium iodide staining. […] To determine the apoptosis-inducing activity of HK2 inhibitors, 10 and 30 μM of compounds H2 and H10 treated FaDu and Cal27 cells were stained with annexin V conjugated with FITC, followed by propidium iodide staining.
# Cal27 cells = test: 2-NBDG glucose uptake assay (flow cytometry), Cal27; settings: Cal27, 10 μM and 30 μM, 72 h, vs DMSO control
# Method: as §1
# 2-[N-(7-Nitrobenz-2-oxa-1,3-diaxol-4-yl) amino]-2-deoxyglucose (2-NBDG) uptake into cells happens via glucose transporters and post uptake 2-NBDG gets phosphorylated by hexokinases. Since cancer cells represent higher glycolytic activity, the inhibition of HK2 activity in cancer cells is actively reflected in the inhibition of 2-NBDG uptake ([Hung et al., 2022]; [Li et al., 2022]). […] In this assay, the MFI of intracellular 2-NBDG serves as a quantitative measure of cellular glucose uptake. […] This finding is further supported by the increased % population of 2-NBDG positive cells in Cal27 cells compared to FaDu cells (Figure 3).
# FaDu oral cancer cells = test: MTT antiproliferative assay, FaDu; settings: Homo sapiens, FaDu; MTT, 72 h treatment; mean ± SEM; read-out: GI50 for FaDu
# Method: FaDu cell line was cultured in RPMI-1640 medium containing L-glutamine (300 mg/L) and sodium bicarbonate (2 g/L), while Cal27, HEK293 and HFF-1 cell lines were cultured in DMEM medium containing glucose (4.5 g/L), L-glutamine (584 mg/L) and sodium bicarbonate (3.7 g/L). For gene expression and qPCR studies, RNA isolation was performed using Trizol (Thermo). The reagents and the primer sequences employed for the qPCR assays have been described previously ([Chakraborty et al., 2022]).
# The hits derived from the docking study were sourced from either commercial suppliers or pre-existing compounds within our laboratory or were synthesized anew. The FaDu and Cal27 oral cancer cells were treated with the compounds for 72 h at concentrations of 3, 10, 30, and 100 μM. A post-treatment MTT assay was done to evaluate their antiproliferative activity. Table S2 represents the anti-proliferative and enzyme inhibitory activity of the compounds obtained as hits from the structure-based drug design strategy. […] Consequently, 50 μM of all the hit compounds were evaluated for their HK2 enzyme inhibitory activity. 50 μM of compounds were incubated with HK2 protein and the rate of reaction was assessed in kinetic mode (rate of conversion of NAD to NADH). The choice of 50 μM concentration was based primarily on MTT assays and GI50 calculation. The average GI50 values of the hit compounds against less sensitive FaDu cell line was approximately 50 μM. Considering this information, we reasoned that utilizing a concentration equivalent to the average GI50 would allow us to assess the maximum inhibitory effect of the compounds on HK2 enzyme activity. […] The same compounds have been previously reported by our team to have EGFR phosphorylation inhibitory potential and were coded as H2 (compound 14) and H10 (compound 11) ([Chakraborty et al., 2022]). […] Figures 1C,D show the lead compounds H2 and H10 at the active site of HK2 enzyme interacting via H-bonds with the amino acid residues.
smiles,measurement,setting,value
"COc1ccc(CNC(=O)c2nc3ccccc3s2)cc1O [Compound 14, N-(3-hydroxy-4methoxybenzyl)benzo[d]thiazole-2-carboxamide]",MMP reduction compared to H10 and CCCP,FaDu cells [1],more effective in reducing the MMP
same,apoptosis-inducing activity,FaDu cells [2],late apoptotic and necrotic effects
same,2-NBDG MFI,Cal27 cells,significant reduction
same,GI50,FaDu oral cancer cells,63.1 µM
